Experimental data: patent US20240228504A1, “SUBSTITUTED TRICYCLIC AMIDES, ANALOGUES THEREOF, AND METHODS USING SAME” (Arbutus Biopharma Corporation, priority 2020, published 2024)
Read-outs that look alike come from different tables or passages of the source.

System: HBV rcDNA in HepDE19 cells
Experiment: HepDE19 assay with bDNA quantitation of HBV rcDNA
Type: cell-based, hepatitis B virus
Conditions: inhibition of rcDNA formation, bDNA quantitation, read-out: DE-19bDNA EC50
[1] = Hepatitis B virus, HepDE19, HepDE19 assay

## CN(C(=O)c1cc2c(F)cc(F)cc2[nH]1)C1COCc2[nH]c(=O)c3cc(F)c(F)cc3c21 (single isomer, unassigned) [Compound 43, N-(8,9-Difluoro-6-oxo-1,4,5,6-tetrahydro-2H-pyrano[3,4-c]isoquinolin-1-yl)-4,6-difluoro-N-methyl-1H-indole-2-carboxamide]
HepDE19 assay
  EC50: 1800 nM

## CN(C(=O)c1cc2ccc(F)cc2[nH]1)C1COCc2[nH]c(=O)c3cc(F)ccc3c21 (single isomer, unassigned) [Compound 32, 6-Fluoro-N-(8-fluoro-6-oxo-1,4,5,6-tetrahydro-2H-pyrano[3,4-c]isoquinolin-1-yl)-N-methyl-1H-indole-2-carboxamide]
HepDE19 assay
  EC50: 20 nM

## CN(C(=O)c1cc(F)c(Cl)c(F)c1)C1CNCc2[nH]c(=O)c3cc(F)ccc3c21 (single isomer, unassigned) [Compound 176, 4-Chloro-3,5-difluoro-N-(8-fluoro-6-oxo-1,2,3,4,5,6-hexahydrobenzo[c][1,7]naphthyridin-1-yl)-N-methylbenzamide]
[1]
  EC50: 19600 nM

## [2H][C@@]1(N(C(=O)c2cc3cc(F)c(F)cc3[nH]2)[13C]([2H])([2H])[2H])COCc2[nH]c(=O)c3cc(F)c(F)cc3c21 [Compound 514, (S)-N-(8,9-Difluoro-6-oxo-1,4,5,6-tetrahydro-2H-pyrano[3,4-c]isoquinolin-1-yl-1-d)-5,6-difluoro-N-(methyl-^13C-d3)-1H-indole-2-carboxamide]
[1]
  EC50: 8 nM

## CN(C(=O)c1cc2ccccc2[nH]1)[C@@H]1CCC(O)c2[nH]c(=O)c3cc(F)c(F)cc3c21 (single isomer, unassigned) [Compound 504]
HepDE19 assay
  EC50: 580 nM

## CN(C(=O)c1cc2sc(Cl)cc2[nH]1)C1COCc2[nH]c(=O)c3cc(F)ccc3c21 (racemic) [Compound 452, 2-Chloro-N-(8-fluoro-6-oxo-1,4,5,6-tetrahydro-2H-pyrano[3,4-c]isoquinolin-1-yl)-N-methyl-4H-thieno[3,2-b]pyrrole-5-carboxamide]
[1]
  EC50: 80 nM

## CN(C(=O)c1ccc2c(c1)c(Cl)nn2C)[C@@H]1COCc2[nH]c(=O)c3cc(F)c(F)cc3c21 [Compound 415, (S)-3-Chloro-N-(8,9-difluoro-6-oxo-1,4,5,6-tetrahydro-2H-pyrano[3,4-c]isoquinolin-1-yl)-N,1-dimethyl-1H-indazole-5-carboxamide]
[1]
  EC50: 60 nM

## CN(C(=O)c1cc2cc(F)c(C(F)F)cc2[nH]1)[C@@H]1CCCc2[nH]c(=O)c3cc(F)c(F)cc3c21 [Compound 482, (R)-N-(8,9-difluoro-6-oxo-1,2,3,4,5,6-hexahydrophenanthridin-1-yl)-6-(difluoromethyl)-5-fluoro-N-methyl-1H-indole-2-carboxamide]
[1]
  EC50: 10 nM

## CN(C(=O)c1cc2cc(C#N)ccc2[nH]1)C1COCc2[nH]c(=O)c3cc(F)ccc3c21 (single isomer, unassigned) [Compound 398, 5-Cyano-N-(8-fluoro-6-oxo-1,4,5,6-tetrahydro-2H-pyrano[3,4-c]isoquinolin-1-yl)-N-methyl-1H-indole-2-carboxamide]
HepDE19 assay
  EC50: 270 nM

## CNc1nc2c(c3cc(F)c(F)cc13)C(N(C)C(=O)c1cc3cc(F)c(F)cc3[nH]1)COC2 (single isomer, unassigned) [Compound 334, N-(8,9-Difluoro-6-(methylamino)-1,4-dihydro-2H-pyrano[3,4-c]isoquinolin-1-yl)-5,6-difluoro-N-methyl-1H-indole-2-carboxamide]
HepDE19 assay
  EC50: 10 nM

## CN(C(=O)c1ccc(C(F)(F)F)c(F)c1)C1COCc2[nH]c(=O)c3cc(C#N)ccc3c21 (racemic) [Compound 134, N-(8-Cyano-6-oxo-1,4,5,6-tetrahydro-2H-pyrano[3,4-c]isoquinolin-1-yl)-3-fluoro-N-methyl-4-(trifluoromethyl)benzamide]
[1]
  EC50: 2800 nM

## CN(C(=O)c1cnc2ccccc2c1)[C@@H]1COCc2[nH]c(=O)c3cc(F)c(F)cc3c21 [Compound 71, (S)-N-(8,9-Difluoro-6-oxo-1,4,5,6-tetrahydro-2H-pyrano[3,4-c]isoquinolin-1-yl)-N-methylquinoline-3-carboxamide]
[1]
  EC50: 330 nM

## CCc1cc(F)cc2[nH]c(C(=O)N(C)C3COCc4[nH]c(=O)c5cc(F)ccc5c43)cc12 (single isomer, unassigned) [Compound 393, 4-Ethyl-6-fluoro-N-(8-fluoro-6-oxo-1,4,5,6-tetrahydro-2H-pyrano[3,4-c]isoquinolin-1-yl)-N-methyl-1H-indole-2-carboxamide]
HepDE19 assay
  EC50: 1200 nM

## CN(C(=O)C1Nc2ccccc2C1(C)C)C1COCc2[nH]c(=O)c3cc(F)c(F)cc3c21 (centres unmarked) [Compound 59, N-(8,9-Difluoro-6-oxo-1,4,5,6-tetrahydro-2H-pyrano[3,4-c]isoquinolin-1-yl)-N,3,3-trimethylindoline-2-carboxamide]
HepDE19 assay
  EC50: 22000 nM

## CN(C(=O)c1ccc2[nH]ncc2c1)[C@@H]1COCc2[nH]c(=O)c3cc(F)c(F)cc3c21 [Compound 429, (S)-N-(8,9-Difluoro-6-oxo-1,4,5,6-tetrahydro-2H-pyrano[3,4-c]isoquinolin-1-yl)-N-methyl-1H-indazole-5-carboxamide]
[1]
  EC50: 980 nM

## CN(C(=O)c1cc2c(Cl)nccc2[nH]1)[C@@H]1COCc2[nH]c(=O)c3cc(F)c(F)cc3c21 [Compound 372, (S)-4-Chloro-N-(8,9-difluoro-6-oxo-1,4,5,6-tetrahydro-2H-pyrano[3,4-c]isoquinolin-1-yl)-N-methyl-1H-pyrrolo[3,2-c]pyridine-2-carboxamide]
[1]
  EC50: 20 nM

## CN(C(=O)c1cc2c(C#N)cc(F)cc2[nH]1)C1COCc2[nH]c(=O)c3cc(F)ccc3c21 (single isomer, unassigned) [Compound 383, 4-Cyano-6-fluoro-N-(8-fluoro-6-oxo-1,4,5,6-tetrahydro-2H-pyrano[3,4-c]isoquinolin-1-yl)-N-methyl-1H-indole-2-carboxamide]
HepDE19 assay
  EC50: 40 nM

## CN(C(=O)c1cc2cc(F)c(F)cc2[nH]1)C1COCc2nc(NCCN)c3cc(F)c(F)cc3c21 (single isomer, unassigned) [Compound 351, N-(6-((2-Aminoethyl)amino)-8,9-difluoro-1,4-dihydro-2H-pyrano[3,4-c]isoquinolin-1-yl)-5,6-difluoro-N-methyl-1H-indole-2-carboxamide]
HepDE19 assay
  EC50: 30 nM

## CN(C(=O)C1Cc2cc(F)c(F)cc2C1)[C@@H]1COCc2[nH]c(=O)c3cc(F)c(F)cc3c21 [Compound 233, (S)-N-(8,9-Difluoro-6-oxo-1,4,5,6-tetrahydro-2H-pyrano[3,4-c]isoquinolin-1-yl)-5,6-difluoro-N-methyl-2,3-dihydro-1H-indene-2-carboxamide]
[1]
  EC50: 40 nM

## CN(C(=O)[C@@H](O)Cc1ccccc1)[C@@H]1COCc2[nH]c(=O)c3cc(F)c(F)cc3c21 [Compound 87, (S)-N-((S)-8,9-Difluoro-6-oxo-1,4,5,6-tetrahydro-2H-pyrano[3,4-c]isoquinolin-1-yl)-2-hydroxy-N-methyl-3-phenylpropanamide]
[1]
  EC50: 3200 nM

## CN(C(=O)c1cc2ccc(F)cn2c1)[C@@H]1COCc2[nH]c(=O)c3cc(F)c(F)cc3c21 [Compound 224, (S)-N-(8,9-Difluoro-6-oxo-1,4,5,6-tetrahydro-2H-pyrano[3,4-c]isoquinolin-1-yl)-6-fluoro-N-methylindolizine-2-carboxamide]
[1]
  EC50: 10 nM

## CN(C(=O)c1cc2cc(F)c(F)cc2[nH]1)C1COCc2[nH]c(=O)c3cc(F)ccc3c21 (single isomer, unassigned) [Compound 50, 5,6-Difluoro-N-(8-fluoro-6-oxo-1,4,5,6-tetrahydro-2H-pyrano[3,4-c]isoquinolin-1-yl)-N-methyl-1H-indole-2-carboxamide]
HepDE19 assay
  EC50: 10 nM

## CC(=O)N1Cc2[nH]c(=O)c3cc(F)ccc3c2C(N(C)C(=O)c2cc3ccccc3[nH]2)C1 (single isomer, unassigned) [Compound 69, N-(3-Acetyl-8-fluoro-6-oxo-1,2,3,4,5,6-hexahydrobenzo[c][1,7]naphthyridin-1-yl)-N-methyl-1H-indole-2-carboxamide]
HepDE19 assay
  EC50: 21000 nM

## CN(C(=O)c1ccc2ncsc2c1)C1COCc2[nH]c(=O)c3cc(F)ccc3c21 (single isomer, unassigned) [Compound 446, N-(8-fluoro-6-oxo-1,4,5,6-tetrahydro-2H-pyrano[3,4-c]isoquinolin-1-yl)-N-methylbenzo[d]thiazole-6-carboxamide]
HepDE19 assay
  EC50: 16000 nM

## CN(C(=O)c1ccc(Br)c(F)c1F)[C@@H]1COCc2[nH]c(=O)c3cc(F)c(F)cc3c21 [Compound 244, (S)-4-Bromo-N-(8,9-difluoro-6-oxo-1,4,5,6-tetrahydro-2H-pyrano[3,4-c]isoquinolin-1-yl)-2,3-difluoro-N-methylbenzamide]
[1]
  EC50: 80 nM

## CN(C(=O)c1cnc(C(F)(F)F)c(Cl)c1)C1COCc2[nH]c(=O)c3cc(F)ccc3c21 (single isomer, unassigned) [Compound 378, 5-Chloro-N-(8-fluoro-6-oxo-1,4,5,6-tetrahydro-2H-pyrano[3,4-c]isoquinolin-1-yl)-N-methyl-6-(trifluoromethyl)nicotinamide]
[1]
  EC50: 18300 nM

## CN(C(=O)c1cc2cc(Br)ncc2[nH]1)[C@@H]1COCc2[nH]c(=O)c3cc(F)c(F)cc3c21 [Compound 213, (S)-5-Bromo-N-(8,9-difluoro-6-oxo-1,4,5,6-tetrahydro-2H-pyrano[3,4-c]isoquinolin-1-yl)-N-methyl-1H-pyrrolo[2,3-c]pyridine-2-carboxamide]
[1]
  EC50: 80 nM

## CN(C(=O)c1cccc(-c2ccccc2)c1)[C@@H]1COCc2[nH]c(=O)c3cc(F)c(F)cc3c21 [Compound 288, (S)-N-(8,9-Difluoro-6-oxo-1,4,5,6-tetrahydro-2H-pyrano[3,4-c]isoquinolin-1-yl)-N-methyl-[1,1′-biphenyl]-3-carboxamide]
[1]
  EC50: 11300 nM

## CN(C(=O)c1cc2c(F)cccc2[nH]1)C1CNCc2[nH]c(=O)c3cc(F)c(F)cc3c21 (single isomer, unassigned) [Compound 106, N-(8,9-Difluoro-6-oxo-1,2,3,4,5,6-hexahydrobenzo[c][1,7]naphthyridin-1-yl)-4-fluoro-N-methyl-1H-indole-2-carboxamide]
HepDE19 assay
  EC50: 100 nM
